Counter-ions that a name gives are not always drawn. Like-named read-outs stand apart in the source and are kept apart here.
Columns and labels:
[1] = system: chloral hydrate treated mice; experiment: chloral hydrate antagonism test in the mouse (sleeping time); type: in vivo, mouse (male albino mice); settings: oral 20 mg/kg, followed by 300 mg/kg i.p. chloral hydrate, compared to saline-treated control group, read-out: Percent Reduction in Sleeping Time at 20 mg/kg Body Weight
Experimental: (§1) The compounds of the present invention effectively stimulate the central nervous system of mammals. Compounds having biological activity of this type are generally referred to as being analeptic agents.
According to the chloral hydrate antagonism test, groups of 20 fasted male albino mice are administered an oral dose of 20 milligrams per kilogram of the 1-iminomethylindoline test compound. This is followed immediately by an intraperitoneal dose of 300 milligrams per kilogram of chloral hydrate. The average reduction in sleeping time compared to a saline-treated control group is a measure of the central nervous system stimulant action of the test compound and is as follows for representative 1-iminomethylindolines of this invention.

[2] = system: phenylquinone writhing syndrome in mice; experiment: prevention of phenylquinone writhing (analgesic activity); type: in vivo; settings: Mus musculus, sc, 10 min, read-out: ED50 (prevention of phenylquinone writhing)
Experimental: The prevention of this syndrome is employed as a measure of analgesic activity -- Hendershot and Forsaith, J. Pharmacol. Exp. Therap. […] In this test, groups of 10 to 20 mice are injected subcutaneously with graduated doses of the test compound. At the time of a predetermined peak effect, the animals are administered a dose of 2.5 milligrams per kilogram of body weight of phenylquinone intraperitoneally. The latter injection induces writhing episodes in the mice. […] A log dose-response curve is prepared and the dose of the test compound required to decrease the number of writhing episodes of 50 percent is estimated by interpolation.

[3] = system: pentobarbital treated cats; experiment: pentobarbital antagonism test in the cat; type: in vivo; settings: comparison of 4-ethyl-4-methyl-2,6-piperidinedione and the two preferred compounds
Experimental: as §1
The pentobarbital antagonism test for the compounds of the present invention in the cat is carried out in the following fashion. A cat of either sex wherein a chronically indwelling intravenous cannula has been previously surgically inserted, is placed in an observation cubicle measuring 2 ft. × 2ft. × 2ft. The cat is allowed to move about freely at the end of a leash. A dose of 12 milligrams per kilogram of body weight of pentobarbital sodium in aqueous solution is infused at the rate of approximately 2 milligrams per kilogram per minute via tubing contained in the leash. One-half hour after the start of this infusion the cat is in a state of light anesthesia characterized by unconsciousness, immobility, relaxed nictating membrane, and is not responsive to handling but has active pinneal, palpebral and paw-pinch withdrawal reflexes. At this time the 1-iminomethylindoline compound is infused in concentration of 10 milligrams per milliter at a rate of 0.2 milliters per minute until (a) consciousness is restored, (b) a total of 25 milligrams per kilogram of body weight of test compound is administered or (c) mounting toxicity interferes. Consciousness is recognized by the presence of alertness to surroundings as indicated by the ability of the cat's eyes to follow a movement of a nearby object and in its attempts to assume an upright position.
Representative compounds of the present invention wherein a dose of up to 25 milligrams per kilogram of body weight restored consciousness to pentobarbital treated cats are Examples 1-4, 7-10, 12, 15, 17-20, (Table III).

[4] = system: chloral hydrate treated mice; experiment: chloral hydrate antagonism test in the mouse (sleeping time); type: in vivo, mouse (male albino mice); settings: po, read-out: dose producing a 50 percent reduction of the sleeping time
motor activity in rats = experiment: activity cage technique (motor stimulation in rats); type: in vivo, rat
Text: The activity cage technique described by J. W. Kissel, Science, 139, 1224 (1963), was used to measure motor stimulation in rats. […] Since motor stimulation is generally associated with analeptic action, the instant compounds of this invention are unique in the respect that while they are analeptic agents they are not motor stimulants.

[5] = subcutaneous, phenylquinone 2.5 mg/kg i.p., episodes counted during 10 minutes
[6] = mouse, 300 mg/kg chloral hydrate, comparative test

## O=[N+]([O-])c1ccc2c(c1)CCN2C1=NCCCCC1 [Example 21, 1-[7-(3,4,5,6-Tetrahydro-2H-azepinyl)]-5-nitroindoline hydrochloride]
[1]
  inhibition in vivo at 20 mg/kg: 50%

## CC1CCC(N2CCc3ccccc32)=N1 (centres unmarked) [Example 8, 1-[2-(5-Methyl-1-pyrrolinyl)]indoline hydrochloride]
[1]
  inhibition in vivo at 20 mg/kg: 36%
[2]; [5]
  ED50: 13 mg/kg

## CN=C(NC)N1CCc2ccccc21 [Example 4, 1-(N,N'-Dimethylamidino)indoline]
[1]
  inhibition in vivo at 20 mg/kg: 24%

## CN=C(C)N1CCc2ccccc21.Cl [Example 3, 1-[1-(Methylimino)ethyl]indoline hydrochloride]
[1]
  inhibition in vivo at 20 mg/kg: 24%
[2]; [5]
  ED50: 15.8 mg/kg

## CCC1(C)CC(=O)NC(=O)C1 [4-ethyl-4-methyl-2,6-piperidinedione, reference compound]
[3]
  comparison of pentobarbital antagonism: restoring consciousness to a pentobarbital treated cat: substantially equiactive
[4]; Mus musculus
  ED50: 14.4 mg/kg

## CC(=O)Oc1ccccc1C(=O)O [Aspirin, reference compound]
[2]
  ED50: 20 mg/kg

## CC(=O)c1ccc2c(c1)CCN2C1=NCCC1 [Example 17, 5-Acetyl-1-[2-(1-pyrrolinyl)]indoline]
[3]
  comparison of pentobarbital antagonism: restoring consciousness to a pentobarbital treated cat: substantially equiactive
[1]
  inhibition in vivo at 20 mg/kg: 62%
Motor activity in rats
  motor activity: did not produce an increase in motor activity
[2]; [5]
  ED50: 7.7 mg/kg
[4]; [6]
  ED50: 10 mg/kg

## CC(C)N=CN1CCc2ccccc21 [Example 2, 1-[(Isopropylimino)methyl]indoline hydrochloride hemihydrate]
[1]
  inhibition in vivo at 20 mg/kg: 38%

## c1ccc2c(c1)CCN2C1=NCCSC1 [Example 12, 1-[5,6-Dihydro-3-(2H-thiazinyl)]indoline hydrochloride]
[2]; [5]
  ED50: 11.3 mg/kg

## c1ccc2c(c1)CCN2C1=NCCCCC1 [Example 11, 1-[7-(3,4,5,6-Tetrahydro-2H-azepinyl)]-indoline hydrochloride]
[2]; [5]
  ED50: 17.1 mg/kg

## Cl.c1ccc2c(c1)CCN2C1=NCCCC1 [Example 10, 1-(3,4,5,6-Tetrahydro-2-pyridyl)-indoline hydrochloride]
[2]; [5]
  ED50: 5.7 mg/kg

## CC(=O)c1ccc2c(c1)CCN2C1=NCCCCC1 [Example 18, 5-Acetyl-1-[7-(3,4,5,6-tetrahydro-2H-azepinyl)]indoline hydrochloride]
[1]
  inhibition in vivo at 20 mg/kg: 17%
[2]; [5]
  ED50: 16.2 mg/kg

## CN=CN1CCc2ccccc21.Cl [Example 1, 1-[(Methylimino)methyl]indoline hydrochloride]
[2]; [5]
  ED50: 21.8 mg/kg

## CN=CN1CCc2cc([N+](=O)[O-])ccc21.Cl [Example 19, 1-[(Methylimino)methyl]-5-nitro-indoline hydrochloride]
[2]; [5]
  ED50: 10.3 mg/kg

## CC1(C)CCC(N2CCc3ccccc32)=N1 [Example 9, 1-[2-(5,5-Dimethyl-1-pyrrolinyl)]-indoline hydrochloride]
[3]
  comparison of pentobarbital antagonism: restoring consciousness to a pentobarbital treated cat: substantially equiactive
[1]
  inhibition in vivo at 20 mg/kg: 65%
Motor activity in rats
  motor activity: did not produce an increase in motor activity
[4]; [6]
  ED50: 15 mg/kg

## c1ccc2c(c1)CCN2C1=NCCC1 [Example 7, 1-[2-(1-Pyrrolinyl)]indoline hydrochloride]
[1]
  inhibition in vivo at 20 mg/kg: 10%
[2]; [5]
  ED50: 3.85 mg/kg

## Cl.c1ccc2c(c1)CCN2C1=NCCN1 [Example 13, 1-(2-Imidazolin-2-yl)indoline hydrochloride]
[2]; [5]
  ED50: 33.2 mg/kg
